From US11447466B2, “Substituted indole compounds useful as inhibitors of TLR7/8/9” (BRISTOL-MYERS SQUIBB COMPANY, priority 2017, dated 2022)

Assays:
Type in all cases: cell-based
human TLR9 = molecular target: T1, human TLR9 (Homo sapiens, UniProt Q9NR96); test: TLR9 inhibition reporter assay (HEK-Blue SEAP reporter, ODN2006 stimulation); conditions: HEK-Blue cells overexpressing human TLR9, SEAP reporter, ODN2006 5 nM, 22 hour incubation
T1 construct: host or cells: HEK-Blue cells
T1 sequence (Q9NR96 26-1032): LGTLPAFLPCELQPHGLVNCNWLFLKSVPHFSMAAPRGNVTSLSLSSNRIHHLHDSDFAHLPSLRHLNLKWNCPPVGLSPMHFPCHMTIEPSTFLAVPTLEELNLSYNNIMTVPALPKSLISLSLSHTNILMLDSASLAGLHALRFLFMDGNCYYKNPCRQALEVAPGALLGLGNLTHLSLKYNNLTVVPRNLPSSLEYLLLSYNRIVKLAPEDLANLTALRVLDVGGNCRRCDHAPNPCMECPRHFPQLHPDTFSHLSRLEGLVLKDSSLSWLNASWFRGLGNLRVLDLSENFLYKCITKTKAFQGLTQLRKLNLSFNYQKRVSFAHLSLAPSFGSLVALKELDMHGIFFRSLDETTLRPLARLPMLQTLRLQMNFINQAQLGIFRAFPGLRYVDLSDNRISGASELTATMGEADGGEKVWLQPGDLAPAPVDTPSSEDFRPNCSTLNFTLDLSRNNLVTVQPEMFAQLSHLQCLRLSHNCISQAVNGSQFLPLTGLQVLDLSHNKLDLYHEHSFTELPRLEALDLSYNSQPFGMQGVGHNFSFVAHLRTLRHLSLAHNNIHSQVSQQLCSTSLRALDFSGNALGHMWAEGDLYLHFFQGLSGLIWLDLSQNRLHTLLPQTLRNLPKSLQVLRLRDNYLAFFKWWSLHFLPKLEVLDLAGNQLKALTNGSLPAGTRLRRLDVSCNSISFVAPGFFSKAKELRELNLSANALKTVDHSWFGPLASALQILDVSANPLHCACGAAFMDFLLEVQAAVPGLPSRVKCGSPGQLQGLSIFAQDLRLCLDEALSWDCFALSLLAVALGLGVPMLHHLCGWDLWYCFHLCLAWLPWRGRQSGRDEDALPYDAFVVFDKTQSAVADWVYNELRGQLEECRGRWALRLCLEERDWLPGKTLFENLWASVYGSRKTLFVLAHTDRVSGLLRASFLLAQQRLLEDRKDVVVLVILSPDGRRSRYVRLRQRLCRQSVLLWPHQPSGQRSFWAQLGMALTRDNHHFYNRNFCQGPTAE
How it was run: (§1)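 Compound treatment: 30 min, RT, 0.05 nM–50 μM final. Agonist: TLR7 gardiquimod 7.5 μM; TLR8 R848 15.9 μM; TLR9 ODN2006 5 nM. Incubation 22 h, 37 °C, 5% CO2. Readout SEAP, HEK-Blue Detection.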

human TLR7 = molecular target: T2, human TLR7 (Homo sapiens, UniProt Q9NYK1); test: TLR7 inhibition reporter assay (HEK-Blue SEAP reporter, gardiquimod stimulation); conditions: HEK-Blue cells overexpressing human TLR7, SEAP reporter, gardiquimod 7.5 μM, 22 hour incubation
T2 construct: host or cells: HEK-Blue cells
T2 sequence (Q9NYK1 27-1049): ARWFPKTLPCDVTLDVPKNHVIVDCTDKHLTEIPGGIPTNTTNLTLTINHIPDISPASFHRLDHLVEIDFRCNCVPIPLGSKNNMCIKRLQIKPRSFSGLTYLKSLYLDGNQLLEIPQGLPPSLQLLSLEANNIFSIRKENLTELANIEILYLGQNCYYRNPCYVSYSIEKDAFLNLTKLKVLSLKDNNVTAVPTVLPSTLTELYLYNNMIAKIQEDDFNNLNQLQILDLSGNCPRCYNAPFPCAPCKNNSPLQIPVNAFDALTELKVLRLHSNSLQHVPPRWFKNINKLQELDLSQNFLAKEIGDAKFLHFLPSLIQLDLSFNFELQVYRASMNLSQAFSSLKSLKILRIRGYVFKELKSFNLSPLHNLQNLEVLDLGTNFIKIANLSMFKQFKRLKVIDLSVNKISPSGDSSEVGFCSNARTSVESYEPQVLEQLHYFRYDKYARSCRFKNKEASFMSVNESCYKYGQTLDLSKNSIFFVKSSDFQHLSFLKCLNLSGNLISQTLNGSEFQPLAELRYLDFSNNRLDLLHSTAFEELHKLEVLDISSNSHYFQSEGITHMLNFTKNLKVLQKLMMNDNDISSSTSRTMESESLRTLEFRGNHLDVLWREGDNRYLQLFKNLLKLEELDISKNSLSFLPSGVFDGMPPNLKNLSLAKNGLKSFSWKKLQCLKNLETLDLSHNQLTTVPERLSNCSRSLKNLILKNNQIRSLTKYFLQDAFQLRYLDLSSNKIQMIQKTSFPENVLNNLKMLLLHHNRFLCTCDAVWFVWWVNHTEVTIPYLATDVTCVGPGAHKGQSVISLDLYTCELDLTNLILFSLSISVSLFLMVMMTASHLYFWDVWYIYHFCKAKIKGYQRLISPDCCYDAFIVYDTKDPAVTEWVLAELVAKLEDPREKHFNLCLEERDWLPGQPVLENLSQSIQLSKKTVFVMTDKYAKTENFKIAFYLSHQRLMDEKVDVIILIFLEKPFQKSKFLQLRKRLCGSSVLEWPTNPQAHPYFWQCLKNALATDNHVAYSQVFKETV
How it was run: as §1

human TLR8 = molecular target: T3, human TLR8 (Homo sapiens, UniProt Q9NR97); test: TLR8 inhibition reporter assay (HEK-Blue SEAP reporter, R848 stimulation); conditions: HEK-Blue cells overexpressing human TLR8, SEAP reporter, R848 15.9 μM, 22 hour incubation
T3 construct: host or cells: HEK-Blue cells
T3 sequence (Q9NR97 27-1041): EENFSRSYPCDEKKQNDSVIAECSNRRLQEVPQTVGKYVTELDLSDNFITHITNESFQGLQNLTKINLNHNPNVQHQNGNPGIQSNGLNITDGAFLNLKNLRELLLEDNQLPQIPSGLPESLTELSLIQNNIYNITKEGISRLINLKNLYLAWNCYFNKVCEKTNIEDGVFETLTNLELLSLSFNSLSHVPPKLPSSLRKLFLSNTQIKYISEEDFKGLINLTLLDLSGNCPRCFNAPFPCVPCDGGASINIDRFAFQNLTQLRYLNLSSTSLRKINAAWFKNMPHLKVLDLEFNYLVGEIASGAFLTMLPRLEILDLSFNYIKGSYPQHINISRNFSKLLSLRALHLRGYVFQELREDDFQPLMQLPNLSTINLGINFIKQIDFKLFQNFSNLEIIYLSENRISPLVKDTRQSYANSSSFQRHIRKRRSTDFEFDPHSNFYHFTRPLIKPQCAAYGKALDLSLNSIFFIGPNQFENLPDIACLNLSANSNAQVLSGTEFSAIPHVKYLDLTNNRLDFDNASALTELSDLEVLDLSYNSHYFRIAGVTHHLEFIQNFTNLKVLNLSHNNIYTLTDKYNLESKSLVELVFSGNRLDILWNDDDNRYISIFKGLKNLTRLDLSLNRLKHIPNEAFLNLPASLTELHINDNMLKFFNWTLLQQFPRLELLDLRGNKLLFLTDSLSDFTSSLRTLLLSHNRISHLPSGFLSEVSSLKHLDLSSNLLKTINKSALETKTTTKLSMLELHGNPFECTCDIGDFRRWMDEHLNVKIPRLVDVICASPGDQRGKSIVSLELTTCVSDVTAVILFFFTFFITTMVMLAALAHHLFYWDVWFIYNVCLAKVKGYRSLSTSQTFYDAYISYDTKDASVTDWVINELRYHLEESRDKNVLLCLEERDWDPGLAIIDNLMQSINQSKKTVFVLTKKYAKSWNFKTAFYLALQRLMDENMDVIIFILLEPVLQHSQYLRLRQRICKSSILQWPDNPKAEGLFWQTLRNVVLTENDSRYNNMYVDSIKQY
How it was run: as §1

IC50 (human TLR9) | IC50 (human TLR7) | IC50 (human TLR8) | SMILES
714 nM | 16.2 nM | 4.3 nM | CCCN1CCC(c2ccc3[nH]c(-c4cc(-c5ccc(F)nc5)c(=O)n(C)c4)c(C(C)C)c3c2)CC1 [Example 341, 6′-fluoro-5-(3-isopropyl-5-(1-propylpiperidin-4-yl)-1H-indol-2-yl)-1-methyl-[3,3′-bipyridin]-2(1H)-one]
2260 nM | 25.6 nM | 53.8 nM | Cc1nc(-c2[nH]c3ccc(C4CCN(C5CCOC5)CC4)cc3c2C(C)C)cn(C)c1=O (stereo not drawn) [Example 190, 5-(3-isopropyl-5-(1-(tetrahydrofuran-3-yl)piperidin-4-yl)-1H-indol-2-yl)-1,3-dimethylpyrazin-2(1H)-one]
≥ 50000 nM | 5.7 nM | 4.2 nM | CC(=O)NC1CCC(N2CCC(c3ccc4[nH]c(-c5cc(C)c(=O)n(C)c5)c(C(C)C)c4c3)CC2)CC1 (stereo not drawn) [Example 229, N-(4-(4-(2-(1,5-dimethyl-6-oxo-1,6-dihydropyridin-3-yl)-3-isopropyl-1H-indol-5-yl)piperidin-1-yl)cyclohexyl)acetamide]
957 nM | 72.7 nM | 43.5 nM | Cc1cc(=O)n(C)cc1-c1[nH]c2ccc(C3CCNCC3)cc2c1C(C)C [Example 8, 5-(3-isopropyl-5-(piperidin-4-yl)-1H-indol-2-yl)-1,4-dimethylpyridin-2(1H)-one]
792 nM | 25.7 nM | 39.7 nM | Cc1c(-c2[nH]c3ccc(C4CCNCC4)cc3c2C(C)C)cn(C)c(=O)c1N [Example 19, 3-amino-5-(3-isopropyl-5-(piperidin-4-yl)-1H-indol-2-yl)-1,4-dimethylpyridin-2(1H)-one]
705 nM | 7.7 nM | 432 nM | CCCN1CCC(c2ccc3[nH]c(-c4cc(-c5ccc(N6CCOCC6)nc5)c(=O)n(C)c4)c(C(C)C)c3c2)CC1 [Example 330, 5-(3-isopropyl-5-(1-propylpiperidin-4-yl)-1H-indol-2-yl)-1-methyl-6′-morpholino-[3,3′-bipyridin]-2(1H)-one]
2820 nM | 6.4 nM | 12 nM | Cc1cc(-c2[nH]c3ccc(C4CCN(C(C)C)CC4)cc3c2C(C)C)nn(C)c1=O [Example 192, 6-(3-isopropyl-5-(1-isopropylpiperidin-4-yl)-1H-indol-2-yl)-2,4-dimethylpyridazin-3(2H)-one]
3460 nM | 11.9 nM | 8.7 nM | Cc1c(-c2[nH]c3ccc(C4CCN(CC(=O)N(C)C)CC4)cc3c2C(C)C)cn(C)c(=O)c1C [Example 134, 2-(4-(3-isopropyl-2-(1,4,5-trimethyl-6-oxo-1,6-dihydropyridin-3-yl)-1H-indol-5-yl)piperidin-1-yl)-N,N-dimethylacetamide]
919 nM | 2.9 nM | 29.9 nM | Cc1cc(-c2[nH]c3ccc(C4CCNCC4)cc3c2C(C)C)cn(Cc2ccccc2)c1=O [Example 46, 1-benzyl-5-(3-isopropyl-5-(piperidin-4-yl)-1H-indol-2-yl)-3-methylpyridin-2(1H)-one]
4270 nM | 3.6 nM | 4.3 nM | CCCn1cc(CN2CCC(c3ccc4[nH]c(-c5cc(C)c(=O)n(C)c5)c(C(C)C)c4c3)CC2)cn1 [Example 228, 5-(3-isopropyl-5-(1-((1-propyl-1H-pyrazol-4-yl)methyl)piperidin-4-yl)-1H-indol-2-yl)-1,3-dimethylpyridin-2(1H)-one]
3530 nM | 3.5 nM | 8.1 nM | CCCCN1CCC(c2ccc3[nH]c(-c4cn(C)c(=O)c(Cl)c4C)c(C(C)C)c3c2)CC1 [Example 251, 5-(5-(1-butylpiperidin-4-yl)-3-isopropyl-1H-indol-2-yl)-3-chloro-1,4-dimethylpyridin-2(1H)-one]
5700 nM | 47.4 nM | 29.6 nM | CCn1cc(-c2[nH]c3ccc(C4CCN(C(=O)CN(C)C)CC4)cc3c2C(C)C)c(C)c(C)c1=O [Example 281, 5-(5-(1-(dimethylglycyl)piperidin-4-yl)-3-isopropyl-1H-indol-2-yl)-1-ethyl-3,4-dimethylpyridin-2(1H)-one]
47800 nM | 25.5 nM | 25 nM | Cc1cc(-c2[nH]c3ccc(C4CCN(C5COC5)CC4)cc3c2C(C)C)nn(C)c1=O [Example 189, 6-(3-isopropyl-5-(1-(oxetan-3-yl)piperidin-4-yl)-1H-indol-2-yl)-2,4-dimethylpyridazin-3(2H)-one]
4330 nM | 10.9 nM | 1.6 nM | Cc1c(-c2[nH]c3ccc(C4CCN(CC5(O)CCOCC5)CC4)cc3c2C(C)C)cn(C)c(=O)c1C [Example 319, 5-(5-(1-((4-hydroxytetrahydro-2H-pyran-4-yl)methyl)piperidin-4-yl)-3-isopropyl-1H-indol-2-yl)-1,3,4-trimethylpyridin-2(1H)-one]
